Source: US20230002372A1, “AZAINDOLE CARBOXAMIDE COMPOUNDS FOR THE TREATMENT OF MYCOBACTERIAL INFECTIONS” (THE GLOBAL ALLIANCE FOR TB DRUG DEVELOPMENT, INC., priority 2019, published 2023)
≈ marks a conversion by molar mass, not a printed value.

Tests used:
[1] = tested on: M tb H37Rv; test: MIC determination against M tb H37Rv (green fluorescent protein reporter assay; MIC-MABA); format: cell-based, Mycobacterium tuberculosis; settings: Mycobacterium tuberculosis, H37RV, 240 h, read-out: M. TB H37Rv: MIC-MABA: MIC, M. tb H37Rv; 7H9 broth; 10 days exposure; MIC = lowest concentration inhibiting fluorescence by 90%
[2] = tested on: Mycobacterium abscessus; test: MIC against Mycobacterium abscessus (Mab_ATCC, MHII broth); format: cell-based; settings: Mycobacteroides abscessus; Mycobacterium abscessus ATCC strain; Mueller-Hinton broth (MHII)
From the text: Key for Tables: MIC: Minimum Inhibitory Concentration; MABA: microplate-based Alamar Blue assay; Mab: Mycobacterium abscessus; ATCC: American Type Culture Collection; and MHII: Mueller-Hinton broth.

Question: What does the source list for `Cc1cc(Cl)c2cc(C(=O)NC3CC[Si](C)(C)C3)[nH]c2n1` (centres unmarked) [MPL-401, 4-chloro-N-(1,1-dimethylsilolan-3-yl)-6-methyl-1H-pyrrolo[2,3-b]pyridine-2-carboxamide]?
Answer: MIC [1]: 0.016 µg/mL (≈ 0.0497 µM); MIC [2]: 0.75 µg/mL (≈ 2.33 µM)

Question: With `COc1cc(F)c2cc(C(=O)NC3CC[Si](C)(C)CC3)[nH]c2n1` [MPL-468, N-(1,1-dimethylsilinan-4-yl)-4-fluoro-6-methoxy-1H-pyrrolo[2,3-b]pyridine-2-carboxamide] as the molecule, how does the MIC [1] read?
Answer: Its MIC is 0.023 µg/mL (≈ 0.0686 µM).

Question: And the MIC [2]?
Answer: Its MIC is 0.12 µg/mL (≈ 0.358 µM).

Question: `Cc1nc2[nH]c(C(=O)N[C@@H]3CCC[Si](C)(C)CC3)cc2c(F)c1Cl` (single isomer, unassigned) [MPL-316A] was tested. Which MIC [1] did it give?
Answer: Its MIC is 0.014 µg/mL (≈ 0.0381 µM).

Question: What about the MIC [2] of the same molecule?
Answer: Its MIC is 0.19 µg/mL (≈ 0.516 µM).

Question: What does the source list for `Cc1cc(Cl)c2cc(C(=O)NC3CCC(C)(C)CC3)[nH]c2n1` [MPL-119, 4-chloro-N-(4,4-dimethylcyclohexyl)-6-methyl-1H-pyrrolo[2,3-b]pyridine-2-carboxamide]?
Answer: MIC [1]: 0.14 µg/mL (≈ 0.438 µM); MIC [2]: 0.5 µg/mL (≈ 1.56 µM)

Question: `Cc1cc(F)c2cc(C(=O)NC3CCC(C)(C)CC3)[nH]c2n1` [MPL-118, N-(4,4-dimethylcyclohexyl)-4-fluoro-6-methyl-1H-pyrrolo[2,3-b]pyridine-2-carboxamide] was tested. Which MIC [1] did it give?
Answer: The MIC was 0.017 µg/mL (≈ 0.056 µM).

Question: And the MIC [2]?
Answer: Its MIC is 1 µg/mL (≈ 3.3 µM).

Question: How did the MIC [1] turn out when `Cc1cc(F)c2c(C)c(C(=O)NC3CC[Si](C)(C)CC3)[nH]c2n1` [MPL-209, N-(1,1-dimethylsilinan-4-yl)-4-fluoro-3,6-dimethyl-1H-pyrrolo[2,3-b]pyridine-2-carboxamide] was run?
Answer: Its MIC is 0.03 µg/mL (≈ 0.09 µM).

Question: What about the MIC [2] of the same molecule?
Answer: The MIC was 1 µg/mL (≈ 3 µM).

Question: For `CC1(C)CCC(NC(=O)c2cc3cc(Cl)ncc3[nH]2)CC1` [MPL-127, 5-chloro-N-(4,4-dimethylcyclohexyl)-1H-pyrrolo[2,3-c]pyridine-2-carboxamide], which MIC [1] is on record?
Answer: Its MIC is 0.54 µg/mL (≈ 1.77 µM).

Question: What about the MIC [2] of the same molecule?
Answer: The MIC was 8 µg/mL (≈ 26.2 µM).
